For the assay, the target named is T1, SirT1 (Homo sapiens, UniProt Q96EB6).
T1 sequence (Q96EB6 1-747): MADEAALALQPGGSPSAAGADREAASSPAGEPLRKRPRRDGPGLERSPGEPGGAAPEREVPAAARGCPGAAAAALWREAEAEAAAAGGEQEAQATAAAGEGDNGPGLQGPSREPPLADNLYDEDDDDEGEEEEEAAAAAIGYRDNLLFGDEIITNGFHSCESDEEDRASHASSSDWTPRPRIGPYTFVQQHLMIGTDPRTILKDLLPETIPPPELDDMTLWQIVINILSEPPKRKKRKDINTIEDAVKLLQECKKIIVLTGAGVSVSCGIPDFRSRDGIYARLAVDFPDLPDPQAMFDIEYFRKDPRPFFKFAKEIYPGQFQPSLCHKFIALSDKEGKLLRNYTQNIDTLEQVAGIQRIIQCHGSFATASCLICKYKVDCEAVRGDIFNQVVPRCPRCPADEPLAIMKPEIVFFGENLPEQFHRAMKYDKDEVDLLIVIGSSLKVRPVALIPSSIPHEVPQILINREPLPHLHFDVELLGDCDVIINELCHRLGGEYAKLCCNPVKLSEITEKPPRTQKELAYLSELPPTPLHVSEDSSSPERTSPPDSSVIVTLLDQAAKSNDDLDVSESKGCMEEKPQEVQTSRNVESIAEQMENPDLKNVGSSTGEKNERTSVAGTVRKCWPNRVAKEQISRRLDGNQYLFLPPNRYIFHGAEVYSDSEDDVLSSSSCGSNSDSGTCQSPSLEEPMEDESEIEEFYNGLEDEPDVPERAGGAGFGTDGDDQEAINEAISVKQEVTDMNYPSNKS
Put plainly: SirT1 p53-382 enzymatic deacetylation assay (fluorogenic Fluor-de-Lys principle). The format is biochemical. The source says: An exemplary assay method includes a 1536 well format of the SirT1 enzymatic assay that is based on the commercial “Fluor-de-Lys” assay principle by Biomol, which is fluorogenic (www.biomol.com/store/Product_Data_PDFs/ak500.pdf). In this assay, deacetylation of the e-amino function of a lysyl residue is coupled to a fluorogenic “development step that is dependent on the unblocked e-amino functionality and generates fluorescent aminomethylcoumarin. Fluorescence can be read on a commercial macroscopic reader.

The term IC50 denotes the concentration that gives 50% inhibition.

The structures appear in SMILES notation.

On to `Cc1ccc2[nH]c3c(c2c1)CCCC3(C)C(N)=O` (centres unmarked) [Compound 12, 1,6-Dimethyl-2,3,4,9-tetrahydro-1H-carbazole-1-carboxylic acid amide], for which the IC50 was greater than 10 µM. On to `NC(=O)C1CCc2c1[nH]c1ccccc21` (centres unmarked) [Compound 10, 1,2,3,4-Tetrahydro-cyclopenta[b]indole-3-carboxylic acid amide], for which the IC50 is 1 to 10 µM. On to `NC(=O)C1CCc2c([nH]c3ccc(Br)cc23)C1` (centres unmarked) [Compound 3, 6-Bromo-2,3,4,9-tetrahydro-1H-carbazole-2-carboxylic acid amide], for which the half-maximal inhibitory concentration (IC50) was in the range of 1 to 10 µM. Next, `O=C(Nc1ccc(Cl)cn1)C1CCCc2c1[nH]c1ccc(Cl)cc21` (centres unmarked) [Compound 11, 6-Chloro-2,3,4,9-tetrahydro-1H-carbazole-1-carboxylic acid (5-chloro-pyridin-2-yl)-amide]: 1 to 10 µM. Molecule `NC(=O)C1CCc2c1[nH]c1ccc(Cl)cc21` (centres unmarked) [Compound 1, 7-Chloro-1,2,3,4-tetrahydro-cyclopenta[b]indole-3-carboxylic acid amide] registered an IC50 of less than 1 µM. Next, `NC(=O)C1CCc2c([nH]c3ccc(Cl)cc23)C1` (centres unmarked) [Compound 9, 6-Chloro-2,3,4,9-tetrahydro-1H-carbazole-2-carboxylic acid amide]: greater than 10 µM. In turn, `NC(=O)C1Cc2c([nH]c3ccccc23)CN1` (centres unmarked) [Compound 2, 2,3,4,9-Tetrahydro-1H-b-carboline-3-carboxylic acid amide] returned an IC50 greater than 10 µM. Next, `NC(=O)C1CCc2c([nH]c3ccc(OC(F)(F)F)cc23)C1` (centres unmarked) [Compound 13, 6-Trifluoromethoxy-2,3,4,9-tetrahydro-1H-carbazole-2-carboxylic acid amide]: greater than 10 µM.

Values taken from patent US20050256181A1, “Treating a viral disorder” (ELIXIR PHARMACEUTICALS, INC., priority 2004, published 2005).
